Reference: ChEMBL document CHEMBL1201862, “PubChem BioAssay data set” (2004)
Calls of active or inactive are those of the source.

Columns and labels:
X-box-binding protein 1 = X-box-binding protein 1 (Homo sapiens, UniProt P17861); format: functional, Cricetulus griseus;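 further: confirmatory dose-response counter-screen serving a CHOP assay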
[1] = inhibitors of PGC1a acetylation in cells, dose response, cell-based, cherry-picked samples (AID 720514); format: functional;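 further: potency may reflect raised or lowered acetylation signal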
[2] = biological target: T1, Replicative DNA helicase DnaB (Mycobacterium tuberculosis, UniProt P9WMR3); assay: DnaB intein splicing inhibitors, dose response, biochemical, cell-free fluorescence (AID 449749); format: functional
T1 sequence (P9WMR3 whole entry): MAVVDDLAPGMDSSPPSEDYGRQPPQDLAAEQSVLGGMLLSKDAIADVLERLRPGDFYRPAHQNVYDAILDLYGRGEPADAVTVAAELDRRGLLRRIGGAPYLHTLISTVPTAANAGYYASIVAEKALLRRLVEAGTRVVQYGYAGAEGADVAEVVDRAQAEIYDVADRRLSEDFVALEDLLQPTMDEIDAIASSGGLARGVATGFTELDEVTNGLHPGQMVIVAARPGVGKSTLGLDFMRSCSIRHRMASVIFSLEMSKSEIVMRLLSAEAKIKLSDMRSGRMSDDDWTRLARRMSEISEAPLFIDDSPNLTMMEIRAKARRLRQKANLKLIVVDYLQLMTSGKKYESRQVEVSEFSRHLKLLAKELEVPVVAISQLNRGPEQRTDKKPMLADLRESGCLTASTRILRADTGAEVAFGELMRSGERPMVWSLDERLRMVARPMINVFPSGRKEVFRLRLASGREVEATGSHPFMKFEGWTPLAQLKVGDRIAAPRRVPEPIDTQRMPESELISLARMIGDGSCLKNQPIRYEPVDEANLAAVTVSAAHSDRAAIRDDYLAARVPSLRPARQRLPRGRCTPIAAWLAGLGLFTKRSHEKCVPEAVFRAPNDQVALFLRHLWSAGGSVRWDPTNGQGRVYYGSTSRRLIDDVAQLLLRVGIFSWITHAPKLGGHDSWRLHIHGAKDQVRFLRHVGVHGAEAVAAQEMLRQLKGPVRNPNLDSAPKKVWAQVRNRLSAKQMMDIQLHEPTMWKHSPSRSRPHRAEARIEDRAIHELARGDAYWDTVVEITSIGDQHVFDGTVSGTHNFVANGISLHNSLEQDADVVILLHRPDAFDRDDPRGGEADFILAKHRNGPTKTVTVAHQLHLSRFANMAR

[3] = biological target: T2, Calpain-2 catalytic subunit (Sus scrofa, UniProt P43367); assay: pig calpain II inhibitor potency, dose response, biochemical, fluorogenic peptide substrate (AID 1420); format: functional
T2 sequence (P43367 whole entry): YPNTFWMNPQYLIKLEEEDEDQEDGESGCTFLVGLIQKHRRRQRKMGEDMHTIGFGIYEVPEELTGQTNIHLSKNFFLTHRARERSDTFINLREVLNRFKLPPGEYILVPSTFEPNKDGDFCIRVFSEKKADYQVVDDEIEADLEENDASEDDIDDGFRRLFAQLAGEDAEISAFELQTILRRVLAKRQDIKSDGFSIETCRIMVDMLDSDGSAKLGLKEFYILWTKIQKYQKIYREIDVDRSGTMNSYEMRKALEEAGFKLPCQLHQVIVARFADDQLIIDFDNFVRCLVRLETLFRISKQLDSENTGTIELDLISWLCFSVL

[4] = Shn3 3'UTR reporter inhibitors, dose response, cell-based, Clone20 osteoblasts, firefly luciferase, cherry-picked (AID 624132); format: functional;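 further: firefly luciferase luminescence from reporter carrying the Shn3 3'UTR in osteoblasts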
[5] = control 3'UTR Renilla luciferase suppression, dose response, counter-screen for Shn3 inhibitor project, cell-based, Clone20-Shn3RL, cherry-picked (AID 624133); format: functional
Insulin-degrading enzyme [6] = biological target: T3, Insulin-degrading enzyme (Homo sapiens, UniProt P14735); assay: activators of endogenous IDE in HEK cells, dose response, cell-based, fluorescence polarization (AID 588439); format: functional
T3 sequence (P14735 whole entry): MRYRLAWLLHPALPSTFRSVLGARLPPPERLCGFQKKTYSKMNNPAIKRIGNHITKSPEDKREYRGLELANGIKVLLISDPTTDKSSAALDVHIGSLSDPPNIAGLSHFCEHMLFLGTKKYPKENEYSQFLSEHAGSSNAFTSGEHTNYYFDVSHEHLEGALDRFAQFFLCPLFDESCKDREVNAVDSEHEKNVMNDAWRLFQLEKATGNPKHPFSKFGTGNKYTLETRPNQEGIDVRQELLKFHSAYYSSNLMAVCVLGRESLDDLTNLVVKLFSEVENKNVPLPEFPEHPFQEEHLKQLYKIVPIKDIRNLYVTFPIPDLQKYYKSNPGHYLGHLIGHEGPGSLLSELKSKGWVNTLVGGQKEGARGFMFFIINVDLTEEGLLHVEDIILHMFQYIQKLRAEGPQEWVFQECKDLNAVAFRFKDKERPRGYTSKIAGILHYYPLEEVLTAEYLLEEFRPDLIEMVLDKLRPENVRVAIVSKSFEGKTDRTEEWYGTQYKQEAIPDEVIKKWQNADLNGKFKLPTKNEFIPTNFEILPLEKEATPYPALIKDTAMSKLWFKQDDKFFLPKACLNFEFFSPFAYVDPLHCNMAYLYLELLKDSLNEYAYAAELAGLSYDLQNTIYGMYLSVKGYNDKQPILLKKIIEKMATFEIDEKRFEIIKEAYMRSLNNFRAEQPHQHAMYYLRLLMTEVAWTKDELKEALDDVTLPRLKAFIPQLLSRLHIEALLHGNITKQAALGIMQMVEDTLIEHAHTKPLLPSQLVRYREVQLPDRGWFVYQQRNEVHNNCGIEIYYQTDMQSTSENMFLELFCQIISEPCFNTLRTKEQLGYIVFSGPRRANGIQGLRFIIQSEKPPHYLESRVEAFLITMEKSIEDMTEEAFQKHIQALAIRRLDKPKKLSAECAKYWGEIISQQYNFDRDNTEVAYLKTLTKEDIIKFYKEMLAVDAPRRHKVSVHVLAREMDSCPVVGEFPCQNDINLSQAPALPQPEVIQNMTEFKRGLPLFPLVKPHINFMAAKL

[7] = LGR2 antagonists, dose response, cell-based, HEK293, CRE-luciferase reporter, cherry pick, set 2 (AID 743343); format: functional;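 further: transfected cells were stimulated with diluted bursicon conditioned medium after compound addition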
[8] = HEK293 cell cytotoxicity, dose response, cytotoxicity control, plate reader, cherry-picked samples (AID 743446); format: functional, cell-based
Paired box protein Pax-8 = Paired box protein Pax-8 (Homo sapiens, UniProt Q06710); assay: inhibitors of PAX8-driven TPO luciferase reporter, dose response, RMG-I cells, cherry-pick (AID 687027); format: functional, cell-based;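 further: luciferase reporter driven by Pax8 target thyroperoxidase promoter measured by SteadyGlo luminescence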
Sequence of Paired box protein Pax-8 (Q06710 whole entry): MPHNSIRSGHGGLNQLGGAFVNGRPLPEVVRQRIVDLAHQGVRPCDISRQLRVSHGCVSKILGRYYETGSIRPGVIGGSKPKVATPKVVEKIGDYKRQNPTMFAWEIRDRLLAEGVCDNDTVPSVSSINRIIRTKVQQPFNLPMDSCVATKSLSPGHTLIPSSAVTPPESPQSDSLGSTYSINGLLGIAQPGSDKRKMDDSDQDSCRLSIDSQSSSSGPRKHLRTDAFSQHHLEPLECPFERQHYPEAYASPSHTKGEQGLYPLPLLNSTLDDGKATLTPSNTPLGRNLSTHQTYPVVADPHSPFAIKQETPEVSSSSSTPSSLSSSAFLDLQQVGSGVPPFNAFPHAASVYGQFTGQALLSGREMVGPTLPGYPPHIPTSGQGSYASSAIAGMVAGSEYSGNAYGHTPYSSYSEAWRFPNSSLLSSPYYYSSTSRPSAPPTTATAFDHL

[9] = A549 cell cytotoxicity, dose response, cytotoxicity control, plate reader, cherry-pick, antagonist series (AID 743412); format: functional, cell-based
Insulin-degrading enzyme [10] = biological target: T3, Insulin-degrading enzyme; assay: activators of recombinant IDE enzyme, dose response, counter-screen for IDE activator project, biochemical, fluorescence polarization (AID 588681)
HEK293 = assay: HEK cell cytotoxicity by LDH release, dose response, cytotoxicity control for IDE activator project, fluorescence, HEK cells (AID 588440); format: functional, cell-based; settings: Homo sapiens;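 further: cytotoxicity by LDH release measuring loss of membrane integrity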
[11] = biological target: T4, Ubiquitin-conjugating enzyme E2 N (Homo sapiens, UniProt P61088); format: functional;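 further: Dose-response confirmation in a TR-FRET assay detecting UBC13-driven polyubiquitin chain formation, inhibition measured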
T4 sequence (P61088 whole entry): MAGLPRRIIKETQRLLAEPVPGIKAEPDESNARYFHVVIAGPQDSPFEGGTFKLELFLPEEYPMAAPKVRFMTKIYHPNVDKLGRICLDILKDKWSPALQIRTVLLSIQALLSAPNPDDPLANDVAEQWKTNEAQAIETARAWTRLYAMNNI

Sequence of X-box-binding protein 1 (P17861 whole entry): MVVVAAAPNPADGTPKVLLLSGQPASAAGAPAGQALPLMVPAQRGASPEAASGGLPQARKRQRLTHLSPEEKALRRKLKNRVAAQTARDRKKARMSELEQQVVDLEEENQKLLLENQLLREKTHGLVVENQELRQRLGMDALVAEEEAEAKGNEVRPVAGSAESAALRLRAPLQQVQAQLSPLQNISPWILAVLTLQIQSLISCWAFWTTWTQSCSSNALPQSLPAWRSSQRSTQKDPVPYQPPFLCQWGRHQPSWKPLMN

## Cl.N=c1n(Cc2ccccc2)c2ccccc2n1CC(O)COc1ccc(Cl)cc1Cl (centres undefined)
X-box-binding protein 1
  Absolute IC50 (XBP1): 10 µM
[1]
  AC50: 6.94 µM (active)
[2]
  AC50: 2.51 µM (active)
[3]
  IC50: 33.4 µM (not active)
[4]
  AC50: 2.89 µM (active)
[5]
  AC50: 5.16 µM (active)
Insulin-degrading enzyme [6]
  EC50: 11.2 µM (inactive)
[7]
  AC50: 23.1 µM (active)
[8]
  AC50: 12.7 µM (active)
Paired box protein Pax-8
  AC50: 17.2 µM (active)
[9]
  AC50: 6.26 µM (active)
Insulin-degrading enzyme [10]
  EC50: 40.1 µM (inactive)
HEK293
  IC50: 8.27 µM (active)
[11]
  IC50: > 20 µM (inactive)
